SMILES strings stand for the structures. Where only a bound is given, the exact number is not on record here.

As a reminder, the IC50 is the concentration that inhibits the measured activity by half.

In experiment [1] the target is Recombinant human Cbl-b (aa 36-427) (Homo sapiens (Human), UniProt Q13191). The experiment in a line: Cbl-b Biochemical Assay (TR-FRET). Conditions: read-out: TR-FRET hCbl-b IC50. The method, boiled down: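 IC50 from 4-parameter fit of % inhibition (DMSO max, reference-inhibitor min), duplicate ten-point series. Compound preincubated with 6 nM Cbl-b, then Src-Zap70 (1-2.5 nM)/0.5 mM ATP reaction 60 min RT; EDTA quench with labelled UBE2D2-Ub and streptavidin-terbium, 60 min, HTRF at 520 nm.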

Experiment [2] concerns the target Recombinant human c-Cbl (aa 47-435) (Homo sapiens (Human), UniProt P22681). Kind of experiment: c-Cbl Biochemical Assay (TR-FRET). The method, boiled down: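 TR-FRET binding of UBE2D2-Ub-Bodipy (100 nM) to biotinylated c-Cbl (aa 47-435, 6 nM) via Streptavidin-Tb, measured after c-Cbl activation by Src-Zap70 with 0.5 mM ATP (60-90 min RT, 30 min compound preincubation). Ten-point half-log dilutions, 1% DMSO; IC50 by 4-parameter fit of normalized inhibition.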
On the technique in general: In TR-FRET formats the signal depends on donor and acceptor labels being close together.

Sequence of Recombinant human c-Cbl (aa 47-435) (P22681 47-435): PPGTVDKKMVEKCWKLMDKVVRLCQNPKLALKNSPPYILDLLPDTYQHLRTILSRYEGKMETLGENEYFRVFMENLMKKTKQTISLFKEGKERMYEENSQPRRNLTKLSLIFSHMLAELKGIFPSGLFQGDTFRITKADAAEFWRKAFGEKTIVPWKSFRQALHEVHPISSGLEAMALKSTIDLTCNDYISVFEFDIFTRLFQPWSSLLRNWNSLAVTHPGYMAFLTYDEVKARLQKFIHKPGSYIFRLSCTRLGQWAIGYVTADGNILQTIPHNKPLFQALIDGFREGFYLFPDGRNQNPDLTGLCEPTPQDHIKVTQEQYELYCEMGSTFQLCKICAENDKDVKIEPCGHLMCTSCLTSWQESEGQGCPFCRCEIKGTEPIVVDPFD
Sequence of Recombinant human Cbl-b (aa 36-427) (Q13191 36-427): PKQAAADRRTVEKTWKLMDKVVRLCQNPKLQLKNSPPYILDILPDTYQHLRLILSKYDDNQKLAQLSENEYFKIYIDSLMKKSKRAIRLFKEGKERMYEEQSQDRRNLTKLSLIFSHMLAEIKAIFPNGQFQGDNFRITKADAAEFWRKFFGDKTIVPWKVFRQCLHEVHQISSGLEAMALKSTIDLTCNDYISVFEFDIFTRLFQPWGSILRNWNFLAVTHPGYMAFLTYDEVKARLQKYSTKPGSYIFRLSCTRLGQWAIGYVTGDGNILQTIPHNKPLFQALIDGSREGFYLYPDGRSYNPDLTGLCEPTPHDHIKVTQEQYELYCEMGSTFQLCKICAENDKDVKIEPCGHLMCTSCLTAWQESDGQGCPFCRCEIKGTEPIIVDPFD

Regarding `C[C@@H](NCc1ccc2c(c1)C(=O)N(c1cc(-c3ccc(C#N)cc3-c3nncn3C)cc(C3CC3)n1)C2)C1CCC1` [AOJ-2, 4-{2-[6-({[(1R)-1-Cyclobutylethyl]amino}methyl)-1-oxo-3H-isoindol-2-yl]-6-cyclopropylpyridin-4-yl}-3-(4-methyl-1,2,4-triazol-3-yl)benzonitrile], the IC50 in experiment [1] and in experiment [2] was not above 0.2 µM in each case.

`CCOc1cc(-c2ccc(F)cc2-c2nncn2C)cc(N2Cc3c(OC)cc(CNCC4(O)CCC4)cc3C2=O)n1` [AIJ-2, 2-{6-Ethoxy-4-[4-fluoro-2-(4-methyl-1,2,4-triazol-3-yl)phenyl]pyridin-2-yl}-6-({[(1-hydroxycyclobutyl)methyl]amino}methyl)-4-methoxy-3H-isoindol-1-one]: the IC50 in experiment [1] and in experiment [2] was not above 0.2 µM in each case.

As to `CN(Cc1ccc2c(c1)C(=O)N(c1cc(-c3ccc(C#N)cc3-c3nncn3C)cc(C3CC3)n1)C2)CC1COC1` [ANX-2, 4-[2-Cyclopropyl-6-(6-{[methyl(oxetan-3-ylmethyl)amino]methyl}-1-oxo-3H-isoindol-2-yl)pyridin-4-yl]-3-(4-methyl-1,2,4-triazol-3-yl)benzonitrile], the IC50 in experiment [1] and in experiment [2] was not above 0.2 µM throughout.

With `COC[C@@H](C)NCc1cc(F)c2c(c1)C(=O)N(c1cc(-c3ccc(C#N)cc3-c3nncn3C)cc(C3CC3)n1)C2` [AKH-1, 4-{2-Cyclopropyl-6-[4-fluoro-6-({[(2R)-1-methoxypropan-2-yl]amino}methyl)-1-oxo-3H-isoindol-2-yl]pyridin-4-yl}-3-(4-methyl-1,2,4-triazol-3-yl)benzonitrile], the half-inhibitory concentration (IC50) in experiment [1] and in experiment [2] was not above 0.2 µM in each case.

Regarding `Cn1cnnc1-c1cc(F)ccc1-c1cc(C2CC2)nc(N2Cc3c(F)cc(CNCC4(O)CCC4)cc3C2=O)c1` [AMJ-1, 2-{6-Cyclopropyl-4-[4-fluoro-2-(4-methyl-1,2,4-triazol-3-yl)phenyl]pyridin-2-yl}-4-fluoro-6-({[(1-hydroxycyclobutyl)methyl]amino}methyl)-3H-isoindol-1-one], the IC50 in experiment [1] and in experiment [2] was not above 0.2 µM throughout.

For the molecule `CNC[C@H](O)COc1ccc2c(c1)C(=O)N(c1cc(-c3ccc(C#N)cc3-c3nncn3C)cc(C3CC3)n1)C2` [AJU-3, 4-(2-Cyclopropyl-6-{6-[(2S)-2-hydroxy-3-(methylamino)propoxy]-1-oxo-3H-isoindol-2-yl}pyridin-4-yl)-3-(4-methyl-1,2,4-triazol-3-yl) benzonitrile], the 50% inhibitory concentration (IC50) in experiment [1] and in experiment [2] was not above 0.2 µM in each case.

As to `CN(Cc1ccc2c(c1)C(=O)N(c1cc(-c3ccc(C#N)cc3-c3nncn3C)cc(C3CC3)n1)C2)CC1CCCC1` [AJY-1, 4-[2-(6-{1[(Cyclopentylmethyl)(methyl)amino]methyl}-1-oxo-3H-isoindol-2-yl)-6-cyclopropylpyridin-4-yl]-3-(4-methyl-1,2,4-triazol-3-yl)benzonitrile], the IC50 in experiment [1] and in experiment [2] was not above 0.2 µM throughout.

On to `Cn1cnnc1-c1cc(C#N)ccc1-c1cc(C2CC2)nc(N2Cc3c(F)cc(CN4CCC[C@](C)(O)C4)cc3C2=O)c1` [AMR-2, 4-[2-Cyclopropyl-6-(4-fluoro-6-{[(3S)-3-hydroxy-3-methylpiperidin-1-yl]methyl}-1-oxo-3H-isoindol-2-yl)pyridin-4-yl]-3-(4-methyl-1,2,4-triazol-3-yl)benzonitrile], for which the IC50 in experiment [1] and in experiment [2] was not above 0.2 µM in each case.

Take `COCCNCc1ccc2c(c1)C(=O)N(c1cc(-c3ccc(C#N)cc3-c3nncn3C)cc(C3CC3)c1)C2` [AJQ-2, 3′-Cyclopropyl-5′-(6-(((2-methoxyethyl)amino)methyl)-1-oxoisoindolin-2-yl)-2-(4-methyl-4H-1,2,4-triazol-3-yl)-[1,1′-biphenyl]-4-carbonitrile]: the IC50 in experiment [1] and in experiment [2] was not above 0.2 µM each time.

Regarding `Cn1cnnc1-c1cc(F)ccc1-c1cc(C2CC2)nc(N2Cc3c(cc(COCCO)cc3C(F)(F)F)C2=O)c1` [AHX-2, 2-(6-Cyclopropyl-4-(4-fluoro-2-(4-methyl-4H-1,2,4-triazol-3-yl)phenyl)pyridin-2-yl)-6-((2-hydroxyethoxy)methyl)-4-(trifluoromethyl)isoindolin-1-one], the IC50 in experiment [1] and in experiment [2] was not above 0.2 µM throughout.

As for `COCC(NCc1cc(F)c2c(c1)C(=O)N(c1cc(-c3ccc(C#N)cc3-c3nncn3C)cc(C3CC3)n1)C2)C(F)(F)F` (centres unmarked) [ANW-3, 4-[2-Cyclopropyl-6-(4-fluoro-1-oxo-6-{[(1,1,1-trifluoro-3-methoxypropan-2-yl)amino]methyl}-3H-isoindol-2-yl)pyridin-4-yl]-3-(4-methyl-1,2,4-triazol-3-yl)benzonitrile], the IC50 in experiment [1] and in experiment [2] was not above 0.2 µM each time.

In the case of `Cn1cnnc1-c1cc(C#N)ccc1-c1cc(C2CC2)nc(N2Cc3c(F)cc(CN4CC[C@H]5OCC[C@H]54)cc3C2=O)c1` (stereo in doubt) [ANF-11, 4-[2-Cyclopropyl-6-(4-fluoro-6-{hexahydrofuro[3,2-b]pyrrol-4-ylmethyl}-1-oxo-3H-isoindol-2-yl)pyridin-4-yl]-3-(4-methyl-1,2,4-triazol-3-yl)benzonitrile], the IC50 in experiment [1] and in experiment [2] was not above 0.2 µM in each case.

On to `Cn1cnnc1-c1cc(C#N)ccc1-c1cc(C2CC2)nc(N2Cc3ccc([C@H]4COC[C@@H](C5CCC5)N4)cc3C2=O)c1` (stereo in doubt) [AOP-4, rac-4-(2-{6-[(3R,5S)-5-Cyclobutylmorpholin-3-yl]-1-oxo-3H-isoindol-2-yl}-6-cyclopropylpyridin-4-yl)-3-(4-methyl-1,2,4-triazol-3-yl)benzonitrile], for which the IC50 in experiment [1] and in experiment [2] was not above 0.2 µM each time.

As for `CNCCNCc1cc2c(c(C(F)(F)F)c1)CN(c1cc(-c3ccc(C#N)cc3-c3nncn3C)cc(C3CC3)n1)C2=O` [AMK-3, 4-{2-Cyclopropyl-6-[6-({[2-(methylamino)ethyl]amino}methyl)-1-oxo-4-(trifluoromethyl)-3H-isoindol-2-yl]pyridin-4-yl}-3-(4-methyl-1,2,4-triazol-3-yl)benzonitrile], the IC50 in experiment [1] and in experiment [2] was not above 0.2 µM throughout.

`Cn1cnnc1-c1cc(C#N)ccc1-c1cc(C2CC2)nc(N2Cc3cc(Cl)c(CNCC4CCCC4)cc3C2=O)c1` [AKO-2, 4-(2-(5-Chloro-6-(((cyclopentylmethyl)amino)methyl)-1-oxoisoindolin-2-yl)-6-cyclopropylpyridin-4-yl)-3-(4-methyl-4H-1,2,4-triazol-3-yl)benzonitrile]: the IC50 in experiment [1] and in experiment [2] was not above 0.2 µM each time.

Regarding `Cn1cnnc1-c1cc(C#N)ccc1-c1cc(C2CC2)nc(N2Cc3ccc(CNCC(C)(C)O)cc3C2=O)c1` [AIE-1, 4-[2-Cyclopropyl-6-(6-{[(2-hydroxy-2-methylpropyl)amino]methyl}-1-oxo-3H-isoindol-2-yl)pyridin-4-yl]-3-(4-methyl-1,2,4-triazol-3-yl)benzonitrile], the IC50 in experiment [1] and in experiment [2] was not above 0.2 µM throughout.

In the case of `CC(NCC1CCC1)c1ccc2c(c1)C(=O)N(c1cc(-c3ccc(C#N)cc3-c3nncn3C)cc(C3CC3)n1)C2` (centres unmarked) [AJZ-1, 4-(2-(6-(1-((Cyclobutylmethyl)amino)ethyl)-1-oxoisoindolin-2-yl)-6-cyclopropylpyridin-4-yl)-3-(4-methyl-4H-1,2,4-triazol-3-yl)benzonitrile], the IC50 in experiment [1] and in experiment [2] was not above 0.2 µM throughout.

`CN(Cc1ccc2c(c1)C(=O)N(c1cc(-c3ccc(Cl)cc3-c3nncn3C)cc(C3CC3)n1)C2)CC1(O)CCC1` [AMG-1, 2-(4-(4-Chloro-2-(4-methyl-4H-1,2,4-triazol-3-yl)phenyl)-6-cyclopropylpyridin-2-yl)-6-((((1-hydroxycyclobutyl)methyl)(methyl)amino)methyl)isoindolin-1-one]: the IC50 in experiment [1] and in experiment [2] was not above 0.2 µM throughout.

On to `COC[C@@H]1CCCN1Cc1cc(F)c2c(c1)C(=O)N(c1cc(-c3ccc(C#N)cc3-c3nncn3C)cc(C3CC3)n1)C2` [AOY-2, (S)-4-(2-Cyclopropyl-6-(4-fluoro-6-((2-(methoxymethyl)pyrrolidin-1-yl)methyl)-1-oxoisoindolin-2-yl)pyridin-4-yl)-3-(4-methyl-4H-1,2,4-triazol-3-yl)benzonitrile], for which the half-maximal inhibitory concentration (IC50) in experiment [1] and in experiment [2] was not above 0.2 µM in each case.

On to `Cn1cnnc1-c1cc(C#N)ccc1-c1cccc(N2Cc3ccc(CO)cc3C2=O)c1` [AJD-2, 3′-(6-(Hydroxymethyl)-1-oxoisoindolin-2-yl)-2-(4-methyl-4H-1,2,4-triazol-3-yl)-[1,1′-biphenyl]-4-carbonitrile], for which the IC50 in experiment [1] and in experiment [2] was 1 to 10 µM in each case.

For `CNC[C@@H](O)COc1ccc2c(c1)C(=O)N(c1cc(-c3ccc(C#N)cc3-c3nncn3C)cc(C3CC3)n1)C2` [AJV-3, 4-(2-Cyclopropyl-6-{6-[(2R)-2-hydroxy-3-(methylamino)propoxy]-1-oxo-3H-isoindol-2-yl}pyridin-4-yl)-3-(4-methyl-1,2,4-triazol-3-yl)benzonitrile], the IC50 in experiment [1] and in experiment [2] was not above 0.2 µM each time.

For the molecule `COc1cc2c(cc1CNCC1CCC1)C(=O)N(c1cc(-c3ccc(C#N)cc3-c3nncn3C)cc(C3CC3)n1)C2` [AKM-2, 4-[2-(6-{[(Cyclobutylmethyl)amino]methyl}-5-methoxy-1-oxo-3H-isoindol-2-yl)-6-cyclopropylpyridin-4-yl]-3-(4-methyl-1,2,4-triazol-3-yl)benzonitrile], the IC50 in experiment [1] and in experiment [2] was 1 to 10 µM each time.

Values taken from patent US12325697B2 (Nimbus Clio, Inc., priority 2021, dated 2025).
